Measurements: patent publication US11351173B2, “Substituted pyrrolo[1,2-a]pyrimidines and their use in the treatment of medical disorders” (Bial—R&D Investments, S.A., priority 2014, dated 2022)
In brackets after ≈: the same amount, converted by molar mass.

Legend:
[1] = target: T1, glucocerebrosidase (Gcase) (Homo sapiens, UniProt P04062); assay: Glucocerebrosidase (Gcase) activation assay, 4-methylumbelliferyl-beta-D-glucopyranoside substrate, fluorescence readout; assay type: biochemical; settings: for activation at 0.1 µM / Percent Gcase Activation, 0.1 μM Test Compound: test compound at 0.1 μM; for activation at 0.1 µM: read-out: Percent Gcase Activation, 0.1 μM Test Compound; for activation at 1 µM / Percent Gcase Activation, 1 μM Test Compound: test compound at 1.0 μM; for activation at 1 µM: read-out: Percent Gcase Activation, 1 μM Test Compound
T1 construct: micellar solution containing 10 nM GCase and 100 nM saposin C
T1 sequence (P04062 40-536): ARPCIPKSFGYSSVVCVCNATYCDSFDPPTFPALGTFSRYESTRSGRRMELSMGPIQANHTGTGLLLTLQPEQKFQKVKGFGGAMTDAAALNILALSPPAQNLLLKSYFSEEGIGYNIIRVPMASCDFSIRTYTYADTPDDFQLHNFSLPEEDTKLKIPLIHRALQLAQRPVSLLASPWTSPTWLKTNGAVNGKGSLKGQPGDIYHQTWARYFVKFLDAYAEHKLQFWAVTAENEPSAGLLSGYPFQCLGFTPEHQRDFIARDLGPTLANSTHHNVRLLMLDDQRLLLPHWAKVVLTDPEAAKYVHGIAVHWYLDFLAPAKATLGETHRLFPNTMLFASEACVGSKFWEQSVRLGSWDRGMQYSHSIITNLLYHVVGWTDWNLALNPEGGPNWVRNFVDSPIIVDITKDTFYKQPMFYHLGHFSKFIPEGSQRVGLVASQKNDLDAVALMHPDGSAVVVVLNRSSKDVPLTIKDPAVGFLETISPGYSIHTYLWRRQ
In short: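 10 nM GCase with 100 nM saposin C pre-incubated 30 min with compound in pH 4.7 phosphate/citrate PS/triton micelles, then mixed 1:1 with 2 mM 4-methylumbelliferyl-β-glucoside micellar substrate (stock level). Run 15 min at room temperature, stopped at pH 12.5; fluorescence 365/440 nm. Screened at 1.0 and 0.1 μM; 8-point curves from 5 μM.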

[2] = Compound solubility in water; settings: for solubility: Compound Solubility in Water

Row | Compound | activation at 0.1 µM [1] [%] | activation at 1 µM [1] [%] | solubility ([2]; water) [µg/mL] | solubility ([2]; water, in water) [µg/mL] | Compound Solubility in Water ([2]; water) [µg/mL] | Percent Gcase Activation, 0.1 μM Test Compound [1] | Percent Gcase Activation, 1 μM Test Compound [1] | Compound Solubility in Water ([2]; in water) [µg/mL]
1 | Cc1cc(C)n2ccc(C(=O)N[C@H]3CC[C@@H](OCC(C)(C)C)CC3)c2n1 [III-94] | > 20 | > 60 | 1.8 (≈ 5.03 µM) |  |  |  |  | 
2 | Cc1cc(C)n2ccc(C(=O)NC3CCOc4cccc(F)c43)c2n1 (stereo not shown) [III-195] | > 20 | > 60 | 7 (≈ 20.6 µM) |  |  |  |  | 
3 | Cc1cc(O)n2ccc(C(=O)NC3CCCc4ccccc43)c2n1 (stereo not shown) [III-56] | < 10 | < 30 | 3.7 (≈ 11.5 µM) |  |  |  |  | 
4 | Cc1ccnc2c(C(=O)NC3(C)CCOc4c(F)cccc43)ccn12 (stereo not shown) [III-258] | < 10 | > 60 |  | 7.6 (≈ 22.4 µM) |  |  |  | 
5 | [2H]C1(NC(=O)c2ccn3c(C)ccnc23)CCCc2ccccc21 (stereo not shown) [III-263] | > 20 | > 60 |  | 7.1 (≈ 23.2 µM) |  |  |  | 
6 | CCCCCO[C@H]1CC[C@@H](NC(=O)c2ccn3c(C)cc(C)nc23)CC1 [III-202] | > 20 | > 60 |  | 3.6 (≈ 10.1 µM) |  |  |  | 
7 | Cc1cc(Cl)nc2c(C(=O)Nc3ccc(-c4cocn4)cc3)ccn12 [III-38] | > 20 | 30 to 60 | 0.3 (≈ 0.85 µM) |  |  |  |  | 
8 | Cc1cc(C)n2c(F)cc(C(=O)Nc3ccc(-c4cocn4)cc3)c2n1 [III-271] | > 20 | > 60 |  | 0.7 (≈ 2 µM) |  |  |  | 
9 | C#Cc1cccc(C(C)(C)NC(=O)c2ccn3c(COC)cc(COC)nc23)c1 [III-157] | > 20 | > 60 | 2.6 (≈ 6.64 µM) |  |  |  |  | 
10 | Cc1cc(C)n2ccc(C(=O)NC3CCC(c4cccs4)CC3)c2n1 (stereo not shown) [III-187] | > 20 | > 60 |  |  | 0.4 |  |  | 
11 | Cc1cc(C)n2ccc(C(=O)Nc3ccc(Cl)c(-c4cnco4)c3)c2n1 [III-214] | > 20 | > 60 |  | 0.01 (≈ 0.0273 µM) |  |  |  | 
12 | CCO[C@H]1CC[C@H](NC(=O)c2ccn3c(C)cc(C)nc23)CC1 [III-99] | < 10 | < 30 | 30.5 (≈ 96.7 µM) |  |  |  |  | 
13 | CCCCO[C@H]1CC[C@H](NC(=O)c2ccn3c(C)cc(NC)nc23)CC1 [III-66] | 10 to 20 | > 60 | 0.4 (≈ 1.12 µM) |  |  |  |  | 
14 | COCCOCCO[C@H]1CC[C@H](NC(=O)c2ccn3c(C)cc(C)nc23)CC1 [III-105] | < 10 | < 30 | 47.3 (≈ 121 µM) |  |  |  |  | 
15 | COCCOCc1cc(C)n2ccc(C(=O)N[C@H]3CCCc4ccccc43)c2n1 [III-43] | 10 to 20 | > 60 | 25.2 (≈ 64 µM) |  |  |  |  | 
16 | COCc1cc(C)n2ccc(C(=O)Nc3ccc(-c4cocn4)cc3)c2n1 [III-50] | > 20 | > 60 | 0.3 (≈ 0.828 µM) |  |  |  |  | 
17 | Cc1cc(C)n2ccc(C(=O)Nc3ccc4c(c3)C(Oc3cc(C)on3)CC4)c2n1 (stereo not shown) [III-96] | > 20 | > 60 | 0.08 (≈ 0.199 µM) |  |  |  |  | 
18 | COc1cc(-c2cocn2)ccc1NC(=O)c1ccn2c(C)cc(C)nc12 [III-109] | > 20 | > 60 | 0.1 (≈ 0.276 µM) |  |  |  |  | 
19 | O=C(NC1CCCc2ccccc21)c1ccn2c(C(F)F)cc(C(F)F)nc12 (stereo not shown) [III-24] | > 20 | > 60 | 0.2 (≈ 0.511 µM) |  |  |  |  | 
20 | CCCCO[C@H]1CC2CCC(C1)[C@H]2NC(=O)c1ccn2c(C)cc(C)nc12 [III-182] | > 20 | > 60 | 0.6 (≈ 1.62 µM) |  |  |  |  | 
21 | Cc1cc(C)n2ccc(C(=O)NC3CCCC34CCCCO4)c2n1 (stereo not shown) [III-138] | 10 to 20 | > 60 |  |  | 33.7 |  |  | 
22 | Cc1cc(C)n2ccc(C(=O)Nc3cnc(-c4ncccn4)c(Cl)c3)c2n1 [III-223] | < 10 | < 30 |  | 3.2 (≈ 8.45 µM) |  |  |  | 
23 | CCCCO[C@H]1CC[C@H](NC(=O)c2ccn3c(COC)cc(C(C)C)nc23)CC1 [III-36] | > 20 | > 60 | 3.5 (≈ 8.72 µM) |  |  |  |  | 
24 | Cc1cc(C)n2ccc(C(=O)NC3CCCc4cccnc43)c2n1 (stereo not shown) [III-193] | < 10 | < 30 | 27.2 (≈ 84.9 µM) |  |  |  |  | 
25 | CCCCCO[C@H]1CC[C@H](NC(=O)c2ccn3c(C)cc(C)nc23)C1 [III-178] | > 20 | > 60 | 9.2 (≈ 26.8 µM) |  |  |  |  | 

Row | Compound | activation at 0.1 µM [1] [%] | activation at 1 µM [1] [%] | solubility ([2]; water) [µg/mL] | solubility ([2]; water, in water) [µg/mL] | Compound Solubility in Water ([2]; water) [µg/mL] | Percent Gcase Activation, 0.1 μM Test Compound [1] | Percent Gcase Activation, 1 μM Test Compound [1] | Compound Solubility in Water ([2]; in water) [µg/mL]
26 | Cc1cc(C)n2ccc(C(=O)NC3CCC4(CCCO4)C3)c2n1 (stereo not shown) [III-147] |  |  |  |  | 20.4 | * (less than 10% Gcase activation) | + (less than 30% Gcase activation) | 
27 | CC[C@H](NC(=O)c1ccn2c(C)cc(C)nc12)c1ccccc1 [III-164] | > 20 | > 60 | 1.4 (≈ 4.55 µM) |  |  |  |  | 
28 | CCCCCO[C@H]1CC[C@H](NC(=O)c2ccn3c(COC)cc(COC)nc23)CC1 [III-154] | > 20 | > 60 | 10.6 (≈ 25.4 µM) |  |  |  |  | 
29 | CCCCO[C@H]1CC[C@H](NC(=O)c2ccn3c(C(F)F)cc(COC)nc23)CC1 [III-35] | > 20 | > 60 | 11.7 (≈ 28.6 µM) |  |  |  |  | 
30 | CNc1cc(C)n2ccc(C(=O)NC3c4ccccc4C4CC3C4)c2n1 (stereo not shown) [III-70] | > 20 | > 60 | 0.3 (≈ 0.866 µM) |  |  |  |  | 
31 | Cc1cc(C)n2ccc(C(=O)N[C@H]3CC[C@H](OC(C)C)CC3)c2n1 [III-106] | 10 to 20 | > 60 | 10.4 (≈ 31.6 µM) |  |  |  |  | 
32 | COCc1cc(C2CC2)nc2c(C(=O)NC3(C)CCOc4cc(F)c(F)cc43)ccn12 (stereo not shown) [III-266] | 10 to 20 | > 60 |  | 0.9 (≈ 2.11 µM) |  |  |  | 
33 | C#CCCCO[C@H]1CC[C@H](NC(=O)c2ccn3c(C)cc(C)nc23)CC1 [III-194] | 10 to 20 | > 60 | 4.5 (≈ 12.7 µM) |  |  |  |  | 
34 | Cc1cc(C)n2ccc(C(=O)NC3CCCCc4ccccc43)c2n1 (stereo not shown) [III-226] | > 20 | > 60 |  | 1.6 (≈ 4.8 µM) |  |  |  | 
35 | C#CCCCCO[C@H]1CC[C@H](NC(=O)c2ccn3c(C)cc(C)nc23)CC1 [III-208] | > 20 | > 60 |  | 0.8 (≈ 2.18 µM) |  |  |  | 
36 | C#Cc1ccc(C(C)(C)NC(=O)c2ccn3c(COC)cc(COC)nc23)cc1 [III-156] | 10 to 20 | > 60 | 13.9 (≈ 35.5 µM) |  |  |  |  | 
37 | CCCCO[C@H]1CC[C@H](NC(=O)c2ccn3c(C)cc(COC)nc23)CC1 [III-45] | 10 to 20 | > 60 | 13.6 (≈ 36.4 µM) |  |  |  |  | 
38 | [2H]c1c(C([2H])([2H])[2H])nc2c(C(=O)NC3(C)CCOc4ccccc43)cc([2H])n2c1C([2H])([2H])[2H] (stereo not shown) [III-159] | > 20 | > 60 | 4.9 (≈ 14.3 µM) |  |  |  |  | 
39 | CCCCCOC1CCC(NC(=O)c2ccn3c(C)cc(C)nc23)C1 (stereo not shown) [III-176] | 10 to 20 | > 60 |  |  | 4.6 |  |  | 
40 | Cc1cc(C)n2ccc(C(=O)Nc3ccc(Cl)c(COc4cccnc4)c3)c2n1 [III-15] | > 20 | > 60 | < 0.1 |  |  |  |  | 
41 | Cc1cc(C)n2ccc(C(=O)NC3CCC4(CCCCO4)CC3)c2n1 (stereo not shown) [III-112] | < 10 |  | 30.4 (≈ 89 µM) |  |  |  |  | 
42 | Cc1cc(C)n2ccc(C(=O)NC3CCN(CC(F)(F)F)C3)c2n1 (stereo not shown) [III-235] | < 10 | < 30 |  | 25.1 (≈ 73.7 µM) |  |  |  | 
43 | CCCCCOC1CCC(NC(=O)c2ccn3c(C)cc(C)nc23)C1 (stereo not shown) [III-177] |  |  |  |  | 17.2 | *** (greater than 20% Gcase activation) | +++ (Gcase activation greater than 60%) | 
44 | COCc1cc(C)nc2c(C(=O)NC(C)(C)c3ccc(-c4cocn4)cc3)ccn12 [III-49] | > 20 | > 60 | 1.7 (≈ 4.2 µM) |  |  |  |  | 
45 | Cc1cc(C)n2ccc(C(=O)NC3CCOc4ccc(F)cc43)c2n1 (stereo not shown) [III-225] | > 20 | > 60 |  | 1.8 (≈ 5.3 µM) |  |  |  | 
46 | Cc1cc(C)n2ccc(C(=O)Nc3ccc(-c4ncco4)cc3)c2n1 [III-274] |  |  |  | 0.06 (≈ 0.181 µM) |  | *** (greater than 20% Gcase activation) | +++ (Gcase activation greater than 60%) | 
47 | [2H]C1(NC(=O)c2ccn3c(C)cc(C)nc23)CCCc2ccccc21 (stereo not shown) [III-131] | > 20 | > 60 | 3.4 (≈ 10.6 µM) |  |  |  |  | 
48 | CC[C@@H](C)O[C@H]1CC[C@H](NC(=O)c2ccn3c(C)cc(C)nc23)CC1 [III-241] | 10 to 20 | > 60 |  | 11 (≈ 32 µM) |  |  |  | 
49 | Cc1cc(C(F)(F)F)nc2c(C(=O)NC3CCC4(CCCCO4)C3)ccn12 (stereo not shown) [III-249] |  |  |  |  |  |  | +++ (Gcase activation greater than 60%) | 12.6
